# Measurements: US6914045B2, “Glycopeptide antibiotics” (Wyeth Holdings Corporation, priority 2001, dated 2005)
# Legend:
# Assay in all cases: in vitro antibacterial evaluation, MIC by broth dilution
# Assay type in all cases: cell-based
# Escherichia coli = tested on: Escherichia coli
# Procedure, shortened: (§1)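 MIC, the lowest antibiotic concentration preventing growth, was read across 64-0.06 μg/mL with 5×10^5 CFU/mL inoculum. Method followed NCCLS M7-A2 broth dilution using Mueller-Hinton II; Gram-positive strains covered recent methicillin-, penicillin- and/or vancomycin-resistant clinical isolates.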
# Staphylococcus sp. = conditions: broth dilution, 18 hours at 35° C.; for MIC Staphylococcus aureus (GC 1131): strain GC 1131
# Procedure, shortened: as §1
# Streptococcus sp. = conditions: broth dilution, 18 hours at 35° C.; for MIC Streptococcus pneumoniae (ATCC 6301): strain ATCC 6301; for MIC Streptococcus pneumoniae (GC 1894): strain GC 1894; for MIC Streptococcus pyogenes (GC 4563): strain GC 4563; for MIC Streptococcus agalactiae (GC 4564): strain GC 4564; for MIC Streptococcus pneumoniae (GC 4565): strain GC 4565
# Procedure, shortened: as §1
# Enterococcus sp. = conditions: broth dilution, 18 hours at 35° C.; for MIC Enterococcus faecalis (ATCC 29212): strain ATCC 29212; for MIC Enterococcus faecalis (GC 2242): strain GC 2242; for MIC Enterococcus faecium (GC 2243): strain GC 2243; for MIC Enterococcus faecalis (GC 2691): strain GC 2691; for MIC Enterococcus faecalis (GC 3059): strain GC 3059; for MIC Enterococcus faecalis (GC 4552): strain GC 4552; for MIC Enterococcus faecalis (GC 4553): strain GC 4553; for MIC Enterococcus faecalis (GC 4554): strain GC 4554; for MIC Enterococcus faecium (GC 4556): strain GC 4556; for MIC Enterococcus faecium (GC 4557): strain GC 4557; for MIC Enterococcus avium (GC 4558): strain GC 4558; for MIC Enterococcus faecalis (GC 6189): strain GC 6189
# Procedure, shortened: as §1
smiles,measurement,setting,value
CC(C)=CCCC(C)=CCOc1ccc(C2OCC3OC(OC4C(CO)OC(Oc5ccc(CC6NC(=O)C(C(C)c7ccccc7)NC(=O)CNC(=O)C(CO)NC(=O)C(C(O)C7CNC(=N)N7C7OC(CO)C(O)C(O)C7O)NC(=O)C(C(O)C7CNC(=N)N7)NC6=O)cc5)C(O)C4O)C(O)C(O)C3O2)cc1 (centres unmarked) [Example 183],MIC Escherichia coli (ATCC 25922),"Escherichia coli; strain ATCC 25922, 18 hours at 35° C.",>64 µg/mL
same,MIC Escherichia coli (GC 4559),"Escherichia coli; strain GC 4559, 18 hours at 35° C.",>64 µg/mL
same,MIC Escherichia coli (GC 4560),"Escherichia coli; strain GC 4560, 18 hours at 35° C.",4 µg/mL
same,MIC Staphylococcus aureus (GC 1131),Staphylococcus sp.; inoculum 5×10^5 CFU/mL,8 µg/mL
same,MIC Staphylococcus aureus (ATCC 29213),Staphylococcus sp.; strain ATCC 29213,4 µg/mL
same,MIC Staphylococcus aureus (GC 1131),Staphylococcus sp.,8 µg/mL
same,MIC Staphylococcus aureus (GC 3051),Staphylococcus sp.; strain GC 3051,2 µg/mL
same,MIC Staphylococcus aureus (GC 3053),Staphylococcus sp.; strain GC 3053,2 µg/mL
same,MIC Staphylococcus aureus (GC 4541),Staphylococcus sp.; strain GC 4541,8 µg/mL
same,MIC Staphylococcus aureus (GC 4542),Staphylococcus sp.; strain GC 4542,4 µg/mL
same,MIC Staphylococcus aureus (GC 4544),Staphylococcus sp.; strain GC 4544,4 µg/mL
same,MIC Staphylococcus aureus (GC 4545),Staphylococcus sp.; strain GC 4545,4 µg/mL
same,MIC Staphylococcus aureus-SMITH (GC 4543),Staphylococcus sp.; strain GC 4543,4 µg/mL
same,MIC Staphylococcus haemolyticus (GC 4546),Staphylococcus sp.; strain GC 4546,8 µg/mL
same,MIC Coagulase Negative Staphylococcus (GC 4547),Staphylococcus sp.; strain GC 4547,4 µg/mL
same,MIC Coagulase Negative Staphylococcus (GC 4548),Staphylococcus sp.; strain GC 4548,2 µg/mL
same,MIC Coagulase Negative Staphylococcus (GC 4549),Staphylococcus sp.; strain GC 4549,4 µg/mL
same,MIC Coagulase Negative Staphylococcus (GC 4551),Staphylococcus sp.; strain GC 4551,4 µg/mL
same,MIC Coagulase Negative Staphylococcus (GC 6257),Staphylococcus sp.; strain GC 6257,2 µg/mL
same,MIC Streptococcus pneumoniae (ATCC 6301),Streptococcus sp.; inoculum 5×10^5 CFU/mL,<0.06 µg/mL
same,MIC Streptococcus pneumoniae (GC 1894),Streptococcus sp.; inoculum 5×10^5 CFU/mL,<0.06 µg/mL
same,MIC Streptococcus pyogenes (GC 4563),Streptococcus sp.; inoculum 5×10^5 CFU/mL,<0.06 µg/mL
same,MIC Streptococcus agalactiae (GC 4564),Streptococcus sp.; inoculum 5×10^5 CFU/mL,<0.06 µg/mL
same,MIC Streptococcus pneumoniae (GC 4565),Streptococcus sp.; inoculum 5×10^5 CFU/mL,<0.06 µg/mL
same,MIC Streptococcus pneumoniae (ATCC 6301),Streptococcus sp.,<0.06 µg/mL
same,MIC Streptococcus pneumoniae (GC 1894),Streptococcus sp.,<0.06 µg/mL
same,MIC Streptococcus pyogenes (GC 4563),Streptococcus sp.,<0.06 µg/mL
same,MIC Streptococcus agalactiae (GC 4564),Streptococcus sp.,<0.06 µg/mL
same,MIC Streptococcus pneumoniae (GC 4565),Streptococcus sp.,<0.06 µg/mL
same,MIC Enterococcus faecalis (ATCC 29212),Enterococcus sp.; inoculum 5×10^5 CFU/mL,8 µg/mL
same,MIC Enterococcus faecalis (GC 2242),Enterococcus sp.; inoculum 5×10^5 CFU/mL,8 µg/mL
same,MIC Enterococcus faecium (GC 2243),Enterococcus sp.; inoculum 5×10^5 CFU/mL,2 µg/mL
same,MIC Enterococcus faecalis (GC 2691),Enterococcus sp.; inoculum 5×10^5 CFU/mL,2 µg/mL
same,MIC Enterococcus faecalis (GC 3059),Enterococcus sp.; inoculum 5×10^5 CFU/mL,4 µg/mL
same,MIC Enterococcus faecalis (GC 4552),Enterococcus sp.; inoculum 5×10^5 CFU/mL,8 µg/mL
same,MIC Enterococcus faecalis (GC 4553),Enterococcus sp.; inoculum 5×10^5 CFU/mL,4 µg/mL
same,MIC Enterococcus faecalis (GC 4554),Enterococcus sp.; inoculum 5×10^5 CFU/mL,4 µg/mL
same,MIC Enterococcus faecium (GC 4556),Enterococcus sp.; inoculum 5×10^5 CFU/mL,8 µg/mL
same,MIC Enterococcus faecium (GC 4557),Enterococcus sp.; inoculum 5×10^5 CFU/mL,4 µg/mL
same,MIC Enterococcus avium (GC 4558),Enterococcus sp.; inoculum 5×10^5 CFU/mL,2 µg/mL
same,MIC Enterococcus faecalis (GC 6189),Enterococcus sp.; inoculum 5×10^5 CFU/mL,2 µg/mL
same,MIC Enterococcus faecalis (ATCC 29212),Enterococcus sp.,8 µg/mL
same,MIC Enterococcus faecalis (GC 2242),Enterococcus sp.,8 µg/mL
same,MIC Enterococcus faecium (GC 2243),Enterococcus sp.,2 µg/mL
same,MIC Enterococcus faecalis (GC 2691),Enterococcus sp.,2 µg/mL
same,MIC Enterococcus faecalis (GC 3059),Enterococcus sp.,4 µg/mL
same,MIC Enterococcus faecalis (GC 4552),Enterococcus sp.,8 µg/mL
same,MIC Enterococcus faecalis (GC 4553),Enterococcus sp.,4 µg/mL
same,MIC Enterococcus faecalis (GC 4554),Enterococcus sp.,4 µg/mL
same,MIC Enterococcus faecium (GC 4556),Enterococcus sp.,8 µg/mL
same,MIC Enterococcus faecium (GC 4557),Enterococcus sp.,4 µg/mL
same,MIC Enterococcus avium (GC 4558),Enterococcus sp.,2 µg/mL
same,MIC Enterococcus faecalis (GC 6189),Enterococcus sp.,2 µg/mL
